Source: PubChem BioAssay (NCI)
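Protocol summary: plate cells (96-well), add compound at 5 concentrations, incubate 48 h, interpolate endpoints linearly. TGI denotes the concentration required for complete inhibition of growth.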

How the values were obtained:
Experiment in all cases: growth of human tumour cells (NCI), 48 h
[1] = tested on: SN12C renal
[2] = tested on: M14 melanoma
[3] = tested on: SK-MEL-28 melanoma
[4] = tested on: MOLT-4 leukemia
[5] = tested on: HCT-15 colon
[6] = tested on: EKVX NSCLC
[7] = tested on: HCC-2998 colon
[8] = tested on: 786-0 renal
[9] = tested on: COLO 205 colon
[10] = tested on: LXFL 529 NSCLC
[11] = tested on: NCI-H522 lung
[12] = tested on: SK-OV-3 ovarian
[13] = tested on: NCI-H226 lung
[14] = tested on: SF-295 CNS
[15] = tested on: OVCAR-4 ovarian
[16] = tested on: UACC-62 melanoma
[17] = tested on: KM12 colon
[18] = tested on: NCI-H460 lung
[19] = tested on: DMS 114 small cell lung
[20] = tested on: HOP-92 NSCLC
[21] = tested on: CAKI-1 renal
[22] = tested on: RPMI-8226 leukemia
[23] = tested on: SF-539 CNS
[24] = tested on: U251 CNS
[25] = tested on: MALME-3M melanoma
[26] = tested on: OVCAR-3 ovarian
[27] = tested on: IGROV1 ovarian
[28] = tested on: TK-10 renal
[29] = tested on: SF-268 CNS
[30] = tested on: RXF 393 renal
[31] = tested on: HCT-116 colon
[32] = tested on: DLD-1 colon
[33] = tested on: HT29 colon
[34] = tested on: A498 renal
[35] = tested on: SNB-78 CNS
[36] = tested on: K-562 leukemia
[37] = tested on: LOX IMVI melanoma
[38] = tested on: ACHN renal
[39] = tested on: M19-MEL melanoma
[40] = tested on: HL-60(TB) leukemia
[41] = tested on: SNB-75 CNS
[42] = tested on: SK-MEL-5 melanoma
[43] = tested on: SNB-19 CNS
[44] = tested on: OVCAR-5 ovarian
[45] = tested on: UO-31 renal
[46] = tested on: CCRF-CEM leukemia
[47] = tested on: NCI-H23 lung
[48] = tested on: SR leukemia
[49] = tested on: UACC-257 melanoma
[50] = tested on: XF 498 CNS
[51] = tested on: A549 NSCLC
[52] = tested on: SW-620 colon
[53] = tested on: KM20L2 colon
[54] = tested on: HOP-62 NSCLC
[55] = tested on: SK-MEL-2 melanoma
[56] = tested on: DMS 273 small cell lung
[57] = tested on: OVCAR-8 ovarian

## O=C1NC2C(=O)N(Cc3ccccc3)C(=O)C2N1 (stereo unspecified)
[1]
  TGI: > 100 µM
[2]
  TGI: > 100 µM
[3]
  TGI: > 100 µM
[4]
  TGI: > 100 µM
[5]
  TGI: > 100 µM
[6]
  TGI: > 100 µM
[7]
  TGI: > 100 µM
[8]
  TGI: > 100 µM
[9]
  TGI: > 100 µM
[10]
  TGI: > 100 µM
[11]
  TGI: > 100 µM
[12]
  TGI: > 100 µM
[13]
  TGI: > 100 µM
[14]
  TGI: > 100 µM
[15]
  TGI: > 100 µM
[16]
  TGI: > 100 µM
[17]
  TGI: > 100 µM
[18]
  TGI: > 100 µM
[19]
  TGI: > 100 µM
[20]
  TGI: > 100 µM
[21]
  TGI: > 100 µM
[22]
  TGI: > 100 µM
[23]
  TGI: > 100 µM
[24]
  TGI: > 100 µM
[25]
  TGI: > 100 µM
[26]
  TGI: > 100 µM
[27]
  TGI: > 100 µM
[28]
  TGI: > 100 µM
[29]
  TGI: > 100 µM
[30]
  TGI: > 100 µM
[31]
  TGI: > 100 µM
[32]
  TGI: > 100 µM
[33]
  TGI: > 100 µM
[34]
  TGI: > 100 µM
[35]
  TGI: > 100 µM
[36]
  TGI: > 100 µM
[37]
  TGI: > 100 µM
[38]
  TGI: > 100 µM
[39]
  TGI: > 100 µM
[40]
  TGI: > 100 µM
[41]
  TGI: > 100 µM
[42]
  TGI: > 100 µM
[43]
  TGI: > 100 µM
[44]
  TGI: > 100 µM
[45]
  TGI: > 100 µM
[46]
  TGI: > 100 µM
[47]
  TGI: > 100 µM
[48]
  TGI: > 100 µM
[49]
  TGI: > 100 µM
[50]
  TGI: > 100 µM
[51]
  TGI: > 100 µM
[52]
  TGI: > 100 µM
[53]
  TGI: > 100 µM
[54]
  TGI: > 100 µM

## Cc1ccc(C(=O)Nc2ccccc2)cc1N=NN(C)C
[1]
  TGI: > 100 µM
[2]
  TGI: > 100 µM
[3]
  TGI: > 100 µM
[5]
  TGI: > 100 µM
[55]
  TGI: > 100 µM
[6]
  TGI: > 100 µM
[7]
  TGI: > 100 µM
[8]
  TGI: 44 µM
[56]
  TGI: > 100 µM
[10]
  TGI: > 100 µM
[11]
  TGI: > 100 µM
[14]
  TGI: > 100 µM
[15]
  TGI: > 100 µM
[16]
  TGI: > 100 µM
[17]
  TGI: > 100 µM
[18]
  TGI: > 100 µM
[20]
  TGI: > 100 µM
[21]
  TGI: > 100 µM
[23]
  TGI: > 100 µM
[24]
  TGI: > 100 µM
[26]
  TGI: > 100 µM
[27]
  TGI: > 100 µM
[28]
  TGI: > 100 µM
[29]
  TGI: > 100 µM
[31]
  TGI: > 100 µM
[32]
  TGI: > 100 µM
[33]
  TGI: > 100 µM
[35]
  TGI: > 100 µM
[37]
  TGI: > 100 µM
[38]
  TGI: > 100 µM
[39]
  TGI: > 100 µM
[42]
  TGI: > 100 µM
[43]
  TGI: > 100 µM
[45]
  TGI: > 100 µM
[47]
  TGI: > 100 µM
[49]
  TGI: > 100 µM
[51]
  TGI: > 100 µM
[52]
  TGI: > 100 µM
[54]
  TGI: > 100 µM
[57]
  TGI: > 100 µM

## O=C(Cn1ccnc1[N+](=O)[O-])c1ccccc1
[1]
  TGI: > 100 µM
[2]
  TGI: > 100 µM
[3]
  TGI: > 100 µM
[4]
  TGI: > 100 µM
[5]
  TGI: > 100 µM
[55]
  TGI: > 100 µM
[6]
  TGI: > 100 µM
[7]
  TGI: > 100 µM
[8]
  TGI: > 100 µM
[9]
  TGI: > 100 µM
[56]
  TGI: > 100 µM
[10]
  TGI: > 100 µM
[11]
  TGI: > 100 µM
[12]
  TGI: > 100 µM
[13]
  TGI: > 100 µM
[14]
  TGI: > 100 µM
[15]
  TGI: > 100 µM
[16]
  TGI: > 100 µM
[17]
  TGI: > 100 µM
[18]
  TGI: > 100 µM
[20]
  TGI: > 100 µM
[21]
  TGI: > 100 µM
[22]
  TGI: > 100 µM
[23]
  TGI: > 100 µM
[25]
  TGI: > 100 µM
[26]
  TGI: > 100 µM
[27]
  TGI: > 100 µM
[28]
  TGI: > 100 µM
[29]
  TGI: > 100 µM
[30]
  TGI: > 100 µM
[32]
  TGI: > 100 µM
[33]
  TGI: > 100 µM
[34]
  TGI: > 100 µM
[36]
  TGI: > 100 µM
[37]
  TGI: > 100 µM
[38]
  TGI: > 100 µM
[39]
  TGI: > 100 µM
[40]
  TGI: > 100 µM
[41]
  TGI: > 100 µM
[42]
  TGI: > 100 µM
[43]
  TGI: > 100 µM
[44]
  TGI: > 100 µM
[45]
  TGI: > 100 µM
[46]
  TGI: > 100 µM
[47]
  TGI: > 100 µM
[49]
  TGI: > 100 µM
[50]
  TGI: > 100 µM
[51]
  TGI: > 100 µM
[52]
  TGI: > 100 µM
[53]
  TGI: > 100 µM
[54]
  TGI: > 100 µM
[57]
  TGI: > 100 µM

## COc1ccc(-c2cc(=O)c3c(OC)cccc3o2)c(OC)c1OC
[1]
  TGI: > 100 µM
[2]
  TGI: > 100 µM
[3]
  TGI: > 100 µM
[4]
  TGI: > 100 µM
[5]
  TGI: > 100 µM
[55]
  TGI: > 100 µM
[7]
  TGI: > 100 µM
[8]
  TGI: > 100 µM
[9]
  TGI: > 100 µM
[56]
  TGI: > 100 µM
[10]
  TGI: > 100 µM
[11]
  TGI: > 100 µM
[12]
  TGI: > 100 µM
[13]
  TGI: > 100 µM
[14]
  TGI: > 100 µM
[15]
  TGI: > 100 µM
[16]
  TGI: > 100 µM
[17]
  TGI: > 100 µM
[18]
  TGI: > 100 µM
[19]
  TGI: > 100 µM
[20]
  TGI: > 100 µM
[21]
  TGI: > 100 µM
[22]
  TGI: > 100 µM
[23]
  TGI: > 100 µM
[24]
  TGI: > 100 µM
[25]
  TGI: > 100 µM
[26]
  TGI: > 100 µM
[27]
  TGI: > 100 µM
[28]
  TGI: > 100 µM
[29]
  TGI: > 100 µM
[30]
  TGI: > 100 µM
[31]
  TGI: > 100 µM
[32]
  TGI: > 100 µM
[33]
  TGI: > 100 µM
[34]
  TGI: > 100 µM
[35]
  TGI: > 100 µM
[36]
  TGI: > 100 µM
[37]
  TGI: > 100 µM
[38]
  TGI: > 100 µM
[39]
  TGI: > 100 µM
[40]
  TGI: > 100 µM
[41]
  TGI: 74.4 µM
[42]
  TGI: > 100 µM
[44]
  TGI: > 100 µM
[46]
  TGI: > 100 µM
[47]
  TGI: > 100 µM
[48]
  TGI: > 100 µM
[49]
  TGI: > 100 µM
[51]
  TGI: > 100 µM
[52]
  TGI: > 100 µM
[53]
  TGI: > 100 µM
[54]
  TGI: > 100 µM
[57]
  TGI: > 100 µM

## COc1ccc(C(N)=O)c(OC)c1OCc1ccccc1
[1]
  TGI: > 100 µM
[2]
  TGI: > 100 µM
[3]
  TGI: > 100 µM
[4]
  TGI: > 100 µM
[5]
  TGI: > 100 µM
[55]
  TGI: > 100 µM
[6]
  TGI: > 100 µM
[7]
  TGI: > 100 µM
[8]
  TGI: > 100 µM
[9]
  TGI: > 100 µM
[56]
  TGI: > 100 µM
[10]
  TGI: > 100 µM
[11]
  TGI: 81.7 µM
[12]
  TGI: > 100 µM
[13]
  TGI: > 100 µM
[14]
  TGI: > 100 µM
[15]
  TGI: > 100 µM
[16]
  TGI: > 100 µM
[17]
  TGI: > 100 µM
[18]
  TGI: > 100 µM
[19]
  TGI: > 100 µM
[20]
  TGI: > 100 µM
[22]
  TGI: > 100 µM
[23]
  TGI: > 100 µM
[24]
  TGI: > 100 µM
[26]
  TGI: > 100 µM
[27]
  TGI: > 100 µM
[28]
  TGI: > 100 µM
[29]
  TGI: > 100 µM
[30]
  TGI: 7.11 µM
[31]
  TGI: > 100 µM
[32]
  TGI: > 100 µM
[33]
  TGI: > 100 µM
[34]
  TGI: > 100 µM
[35]
  TGI: > 100 µM
[36]
  TGI: > 100 µM
[37]
  TGI: > 100 µM
[38]
  TGI: > 100 µM
[39]
  TGI: > 100 µM
[40]
  TGI: > 100 µM
[41]
  TGI: > 100 µM
[42]
  TGI: > 100 µM
[43]
  TGI: > 100 µM
[44]
  TGI: > 100 µM
[45]
  TGI: > 100 µM
[46]
  TGI: > 100 µM
[47]
  TGI: > 100 µM
[51]
  TGI: > 100 µM
[52]
  TGI: > 100 µM
[53]
  TGI: > 100 µM
[54]
  TGI: > 100 µM
[57]
  TGI: > 100 µM
